Laboratory results as given in patent US5141865A, “Monoclonal antibodies which bind thromboxane A2 receptor antagonists and diagnostic methods based thereon” (priority 1989, dated 1992).

Tested on: monoclonal antibody MCTX1
Assay: Competitive radioimmunoassay (RIA) with MCTX1 and radiolabel-1; standard curve and cross-reactivity
Format: binding, mouse
Details: for percent cross-reactivity with MCTX1: ED50 of cross-reactant relative to ED50 of Compound I x 100, standards and cross-reactants in PBS
Protocol: Sera from immunized mice and media collected from wells containing HAT selected hybridomas were tested for the presence of antibodies recognizing Compound I by RIA. Undiluted media (50 μl) was incubated overnight at 4° C. with PBS (50 μl), normal human sera (50 μl) and [^125 I]-iodohistamine - Compound I (radiolabel-1) in PBS (200 μl, 50,000 CPM). After incubation, 1.0 ml of PEG 8000 (Fisher Scientific, Fairlawn, N.J.) (25% wt/vol) was added as separant; samples were centrigued at room temperature at 2000×g for 10 to 15 minutes and the supernatant decanted. Radioactivity associated with the precipitate was then determined using an APEX automatic gamma counter (ICN Micromedic Systems). Satisfactory zero binding and sensitivity were obtained after an overnight incubation at 4° C.
In order to assay samples for thromboxane A2 receptor antagonist, the same procedure was used, except that 50 μl of sample was used in place of the 50 μl of PBS.
In this regard, for construction of the standard curve and determination of cross-reactivity, standards and cross-reactants were prepared in PBS. Three cross-reactants were examined: the dinor and tetranor, possible metabolites of Compound I, and a related compound, Compound II, which lacks most of the omega side chain (Table 2).
To further characterize the specific structural features (epitope) within Compound I that are recognized by MCTX1, various derivatives of Compound I were tested for their cross-reactivity. The percent cross-reactivity was determined by dividing the ED50 of Compound I into the ED50 of the cross-reactants and multiplying the result by 100. […] Two potential metabolites of Compound I, the dinor and tetranor derivatives, had cross-reactivities of 66% and 17.6%, respectively. Both of these compounds have shortened alpha-side chains and no modifications in their omega-side chain. The extent of cross-reactivityof both alpha-side chain metabolites became less as the alpha-side chain became more truncated. […]

## COC(=O)CCC=CCC1C2CCC(O2)C1CN (stereo not drawn) [Compound II]
cross-reactant prepared in PBS
  recognition by MCTX1 (cross-reactivity test): not recognized by MCTX1

## CCCCCCC(=O)NCC(=O)NCC1C2CCC(O2)C1CC=CCC(=O)O (stereo not drawn) [dinor]
  percent cross-reactivity with MCTX1: 66%

## CCCCCCC(=O)NCC(=O)NC[C@H]1[C@@H](CCC(=O)O)[C@@H]2CC[C@H]1O2 [tetranor]
  percent cross-reactivity with MCTX1: 17.6%
